Assay results reported in BigSolDB 2.1.

O=c1c2ccccc2nc2n1CCc1c-2[nH]c2ccccc12
solubility (mole fraction)
Details	283.15 K	288.15 K	293.15 K	298.15 K	303.15 K	308.15 K	313.15 K	318.15 K	323.15 K
in acetone	0.00069	0.00079	0.000929	0.00106	0.00122	0.00139	0.00158	0.0018	0.00205
in ethanol	0.000132	0.00016	0.000191	0.000229	0.000271	0.00032	0.000375	0.00044	0.000509
in isopropanol	7.46e-05	9.8e-05	0.000124	0.00016	0.000201	0.000257	0.000318	0.000396	0.000488
in methanol	6.1e-05	7.33e-05	8.79e-05	0.000105	0.000125	0.000148	0.000172	0.000201	0.000234
in water	1.45e-09	2.02e-09	2.84e-09	3.97e-09	5.49e-09	7.6e-09	1.04e-08	1.38e-08	1.85e-08
